Biological target: T1, PDE4A5 (Rattus norvegicus, UniProt P54748)
T1 construct: targets used in the assays are full-length proteins (as opposed to simply the catalytic domain); expressed in transfected cells; host or cells: Schizosaccharomyces pombe, gene integrated at the cgs2 locus
T1 sequence (P54748 1-844): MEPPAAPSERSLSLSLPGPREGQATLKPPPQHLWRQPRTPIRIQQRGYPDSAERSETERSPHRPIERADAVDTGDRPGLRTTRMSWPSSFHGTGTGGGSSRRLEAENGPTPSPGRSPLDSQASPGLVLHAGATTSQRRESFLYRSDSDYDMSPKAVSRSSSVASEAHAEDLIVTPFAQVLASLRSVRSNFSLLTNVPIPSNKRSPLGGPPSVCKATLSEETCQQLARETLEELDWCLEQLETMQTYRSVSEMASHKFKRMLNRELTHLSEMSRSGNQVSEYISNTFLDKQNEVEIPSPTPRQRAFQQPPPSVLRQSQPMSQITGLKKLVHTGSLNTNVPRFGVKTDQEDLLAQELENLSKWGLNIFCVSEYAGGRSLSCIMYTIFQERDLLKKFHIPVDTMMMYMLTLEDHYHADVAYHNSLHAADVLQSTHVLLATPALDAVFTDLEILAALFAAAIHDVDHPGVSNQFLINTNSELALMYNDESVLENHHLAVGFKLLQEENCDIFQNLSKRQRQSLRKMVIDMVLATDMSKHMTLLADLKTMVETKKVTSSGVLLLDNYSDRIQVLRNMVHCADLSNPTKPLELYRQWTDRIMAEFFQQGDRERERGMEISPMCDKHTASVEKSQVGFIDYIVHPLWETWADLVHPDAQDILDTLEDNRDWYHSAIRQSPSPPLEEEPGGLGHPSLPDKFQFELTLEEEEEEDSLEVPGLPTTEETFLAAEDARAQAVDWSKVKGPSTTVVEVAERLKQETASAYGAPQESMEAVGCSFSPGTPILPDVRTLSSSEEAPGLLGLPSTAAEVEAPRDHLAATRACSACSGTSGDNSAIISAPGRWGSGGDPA
Assay: Fission yeast 5FOA growth assay, strain expressing PDE4A5
Type: cell-based
Settings: 5FOA growth screen; for 2 Assay (2 uM), PDE 4A5: 2 uM compound; for 1 Assay (20 uM), PDE 4A5: 20 uM compound
Protocol: High throughput drug screens were carried out at the Broad Institute's Chemical Biology Program screening facility (Broad Institute, Cambridge, Mass.). Depending upon the strain, cultures were pregrown to exponential phase in EMM complete medium containing from 0.5 to 2.5 mM cAMP to repress fbp1-ura4 transcription. Cells were collected by centrifugation, resuspended in 5FOA medium, and 25 μl were transferred to 384-well microtiter dishes (untreated, with flat clear bottoms) that had been pre-filled with 25 μl 5FOA medium and pre-pinned with 100 nl of compounds (stock solutions were generally 10 mM) from a subset of the Prestwick Bioactive and the Microsource Spectrum compound libraries. Starting cell concentrations ranged from 0.5×10^5 to 4×10^5 cells/ml depending on the screening strain. […] Other positive control dishes contained 5 mM cAMP in the 5FOA medium. Cultures were grown for 48 hours at 30° C., sealed in an airtight container with moist paper towels to prevent evaporation. Optical densities (OD600) of cultures were measured using a microplate reader. Bioinformatic analysis of the results to determine composite Z scores was performed as previously described^30, 31.
Cells were pregrown in EMM medium [MP Biomedicals (Solon, OH), 3% glucose, filter-sterilized to avoid carmelization, which would introduce variability into the optical density of the medium] containing from 0 mM to 2.5 mM cAMP (or either 0.5 mM or 1.0 mM cGMP). This was to repress expression of the fbp1-ura4 reporter prior to exposure of cells to 5FOA medium. Cells were grown at 30° C. to exponential phase (approximately 10^7 cells/ml). Cells were collected by centrifugation and resuspended in 5FOA medium, and 25 μl were transferred to 384-well microtiter dishes (untreated, with flat clear bottoms) that had been pre-filled with 25 μl 5FOA medium and pre-pinned with 100 nl of compounds (stock solutions were generally 10 mM). Starting cell concentrations ranged from 0.5×10^5 to 4×10^5 cells/ml depending on the screening strain. […] Other positive control dishes contained 5 mM cAMP in the 5FOA medium for PDEs that lack appropriate control compounds. Cultures were grown for 48 hours at 30° C., sealed in an airtight container with moist paper towels to prevent evaporation. Optical densities (OD600) of cultures were measured using a microplate reader. Bioinformatic analysis of the results to determine composite Z scores was performed as previously described (1, 3).

| 2 Assay (2 uM), PDE 4A5 | 1 Assay (20 uM), PDE 4A5 | SMILES |
| --- | --- | --- |
| 12.63 | 65.67 | COC(=O)C1=C(C)N(c2ccccc2Cl)C(=O)/C1=C\c1cccs1 [Compound 27] |
| – | 84.08 | Cc1ccc2c(c1)c1nc3ccccc3nc1n2C(C)C [Compound 41] |
| – | 1.80 ND ND ND ND | COC(=O)C1=C(C)N(c2ccccc2F)C(=O)/C1=C\c1cccc(OC)c1O [2008, C21] |
| – | 1.73 ND ND ND ND | COC(=O)C1=C(C)N(c2ccc(C(C)C)cc2)C(=O)/C1=C\c1cccs1 [2008, O19] |
| 13.66 | −0.06 | COC(=O)C1=C(C)N(C2CCCCC2)C(=O)/C1=C\c1cccs1 [Compound 22] |
| – | −0.06 ND ND ND ND | COC(=O)C1=C(C)N(c2ccccc2)/C(=C/c2cccs2)C1=O [2008, K19] |
